In patent US7696374B2, “Arylalklcarbamate derivatives, preparation method thereof and use of same in therapeutics” (Sanofi-Aventis, priority 2003, dated 2010):

melting point [°C] | Structure (SMILES)
172 to 174 | Cc1ccc(OC(=O)NCCc2ccc(-c3ccccc3)cc2)cc1
155 to 157 | O=C(NCc1ccc(-c2ccccc2)cc1)Oc1ccc(F)cc1

The remaining lines, values behind:

Structure (SMILES) | melting point [°C]
O=C(NCc1ccc(-c2ccccc2)cc1)OCC(F)(F)F [Compound No. 1, 2,2,2-Trifluoroethyl 1,1′-biphenyl-4-ylmethylcarbamate] | 123 to 125
O=C(NCc1ccc(Oc2ccccc2)cc1)OCC(F)(F)F [Compound No. 10, 2,2,2-Trifluoroethyl 4-phenyloxybenzylcarbamate] | 145 to 148
O=C(NCCc1ccc(-c2ccccc2)cc1)OCC(F)(F)F [Compound No. 19, 2,2,2-Trifluoroethyl 2-(1,1′-biphenyl-4-yl)ethylcarbamate] | 79 to 81
COc1ccc(OC(=O)NCc2ccc(Oc3ccccc3)cc2)cc1 | 89 to 91
